Holding throughout (test): NCI-60 cell line screen, 48 h
In assay [1] the test system is SK-OV-3 ovarian.
Assay [2] relates to NCI-H226 lung.
The subject of assay [3] is HCC-2998 colon.
Assay [4] has as its system NCI-H23 lung.
In assay [5] the test system is HOP-62 NSCLC.
Assay [6] concerns NCI-H522 lung.
Assay [7] concerns HOP-92 NSCLC.
The subject of assay [8] is SNB-78 CNS.
Assay [9] relates to UACC-62 melanoma.
Assay [10] deals with IGROV1 ovarian.
Assay [11] concerns SK-MEL-2 melanoma.
Assay [12] relates to A498 renal.
For assay [13], the system named is SF-268 CNS.
Assay [14] deals with OVCAR-3 ovarian.
Assay [15] deals with SNB-19 CNS.
Assay [16] deals with COLO 205 colon.
For assay [17], the system named is MALME-3M melanoma.
Assay [18] deals with UACC-257 melanoma.
Assay [19] concerns HL-60(TB) leukemia.
Assay [20] relates to TK-10 renal.

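Test compounds were applied to cells in 96-well plates for 48 hours at 5 doses. TGI: total growth inhibition.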 A value given as a limit tells only on which side of the number the result lay.

Experimental findings from PubChem BioAssay (NCI) are described below.

Take `CC(=O)C(=O)NC1/C=C(C)\C=C/C(O)C/C=C(C)\C=C/C(O)CC2OC(=O)C1(C)C(=O)C2C` (configuration not stated): the TGI in assay [1], in [2], in assay [3], in [4], in [5] and in assay [6] was above 100 µM each time. In addition, the TGI in assay [7], in assay [8], in [9], in assay [10], in assay [11] and in [12] was above 100 µM throughout. Besides, the TGI in assay [13], in [14], in [15], in [16], in assay [17] and in assay [18] was above 100 µM each time.

`C/C(=N\Nc1nc2cc(Cl)ccc2s1)c1ccccn1`: the TGI in [1] was 33.6 µM; in assay [19], 0.586 µM; in assay [2], above 100 µM; in assay [3], above 80.8 µM; in assay [4], 25.9 µM; in [5], 11.1 µM. Also, the TGI was above 41.1 µM in [6]; 15.4 µM in assay [7]; 10.1 µM in assay [9]; above 22.6 µM in assay [12]; 34.1 µM in [13]; 7.11 µM in assay [14]. The TGI is above 100 µM in assay [20]; 15.6 µM in assay [15]; above 60.4 µM in [16]; above 25.6 µM in assay [17]; above 100 µM in [18].

Turning to `CN(C)C(=O)Oc1c(Br)cc(Br)cc1C(=O)OCc1ccccc1`, the TGI was above 100 µM in assay [1]; 49.9 µM in assay [19]; above 77.3 µM in assay [2]; above 96.5 µM in assay [3]; above 72.9 µM in [4]; above 71.2 µM in assay [5]. Further, the TGI is above 100 µM in [6]; 42.8 µM in assay [7]; above 100 µM in [8]; 39.4 µM in assay [9]; above 100 µM in assay [10]; above 71.2 µM in [11]. In addition, the TGI was 71.4 µM in [12]; above 100 µM in assay [13]; 48 µM in assay [14]; above 100 µM in assay [15]; 34 µM in [16]; 55.3 µM in assay [17]. The molecule further showed a TGI in assay [18] of 60.2 µM.

In the case of `O=C1CC(/C=C/c2ccco2)=C(O)C1=O`, the TGI in assay [1] stood at 54.5 µM; in [19], 57.1 µM; in assay [2] it was 69.1 µM; in assay [3], 31.9 µM; in assay [4], 27.2 µM; in assay [5] it was 9.07 µM. The TGI in [6] amounted to 31.7 µM; in assay [7], 28.4 µM; in assay [9], 30.1 µM; in assay [10], 24.5 µM; in [11], 35.1 µM; in assay [13], 75 µM. Further, the TGI in [14] worked out at 27.1 µM; in [20], 44.2 µM; in assay [15], 30.9 µM; in assay [16], 29.2 µM; in assay [17], 23.9 µM; in [18], 33.2 µM.

Consider `COC1OCC(O)C(NC(=O)N(C)N=O)C1O` (configuration not stated), for which the TGI in assay [1], in [2], in [3], in [4], in assay [5] and in assay [6] was above 100 µM each time. For the same molecule, the TGI in [7], in assay [8], in assay [9], in assay [10], in [11] and in assay [12] was above 100 µM each time. Also, the TGI in assay [13], in [14], in assay [15], in assay [16], in [17] and in assay [18] was above 100 µM throughout.

Take `O=c1ccc2ccc(CBr)cc2o1`: the TGI in assay [19] came to 3.58 µM; in assay [2], 23 µM; in assay [3], 9.53 µM; in assay [4] it was 8.91 µM; in assay [5], 30.6 µM; in assay [6], 2.55 µM. Further, the TGI in assay [7] came out at 3.13 µM; in assay [9] it was 23.1 µM; in assay [10] it was 13.1 µM; in assay [11], 26.6 µM; in assay [12], 29.5 µM; in assay [20], 3.37 µM. The TGI worked out at 24.8 µM in [15] and 24 µM in assay [18].

Turning to `CCN1c2ccccc2NC(=S)c2c1n[nH]c2-c1ccccc1`, the TGI in assay [1] was above 100 µM; in assay [19], 29.9 µM; in [3], 19.3 µM; in assay [4], above 100 µM; in [6], 52.8 µM; in [7], above 100 µM. Moreover, the TGI in [9] is above 100 µM; in [10] it was above 100 µM; in [11], 60.1 µM; in assay [13], 95.6 µM; in assay [14], above 100 µM; in assay [20] it was above 100 µM. In addition, the TGI in assay [16] and in assay [18] was above 100 µM in each case.

Regarding `CCCCCCSc1nc(N)nc2nc[nH]c12`, the TGI is 80.8 µM in assay [1]; 60.4 µM in [19]; above 85.4 µM in [2]; above 100 µM in assay [3]; above 100 µM in assay [4]; above 100 µM in assay [5]. For the same molecule, the TGI was 40.9 µM in assay [6]; 72.1 µM in [7]; above 100 µM in assay [8]; above 100 µM in assay [9]; above 100 µM in assay [10]; above 100 µM in [11]. The TGI in assay [12], in assay [13], in assay [14], in assay [15], in assay [16] and in [17] was above 100 µM in each case. Moreover, in assay [18], the TGI was above 100 µM.

Consider `CCOC(=O)c1nc2ccc(OC)cc2c2c1Cc1ccccc1-2`, for which the TGI in [2], in assay [3], in assay [4], in assay [5], in assay [6] and in assay [8] was above 100 µM throughout. Besides, the TGI in [9], in [10], in assay [11], in assay [13], in assay [14] and in assay [20] was above 100 µM in each case. Moreover, the TGI in assay [15], in [16], in assay [17] and in assay [18] was above 100 µM in each case.

Take `CN(C)CCNC(=O)c1cccc2ccc(-c3ccc(Br)cc3)nc12`: the TGI came out at 10.6 µM in [1]; 4.2 µM in assay [19]; 4.82 µM in [2]; 6.32 µM in assay [3]; 13.6 µM in assay [4]; 6.09 µM in assay [5]. The TGI in [6] was 4.21 µM; in assay [7], 8.43 µM; in assay [8], 22.5 µM; in assay [9] it was 3.6 µM; in [10] it was 13.2 µM; in [11], 9.25 µM. Moreover, the TGI in assay [12] was determined as 5.49 µM; in assay [13], 19.1 µM; in assay [14], 12.6 µM; in assay [15], 16.7 µM; in assay [16], 2.54 µM; in assay [17], 8.68 µM. The molecule further showed a TGI in assay [18] of 10.7 µM.

Turning to `CC1(C)OC[C@H](C(=N)OCc2ccccc2)O1`, the TGI in assay [1], in [19], in [2], in [3], in assay [4] and in [5] was above 100 µM throughout. For the same molecule, the TGI in assay [6], in assay [7], in assay [8], in assay [9], in assay [10] and in [11] was above 100 µM in each case. For the same molecule, the TGI in assay [12], in [13], in assay [14], in [20], in assay [15] and in assay [16] was above 100 µM in each case. Further, the TGI in assay [17] and in assay [18] was above 100 µM throughout.
